Assay results as given in patent US10092620B2, “Uses of cyclic peptides for treating and preventing atherosclerosis” (THE SCRIPPS RESEARCH INSTITUTE, priority 2013, dated 2018).
Non-standard residues stand in square brackets, D forms with d. Residues, ends and D or L forms follow the SMILES beside them.

Tests used:
[1] = system: LDLr-null mice; assay: in vivo efficacy study: plasma total cholesterol in high-fat-fed LDLr-null mice; design: species or system mouse
Excerpt: Encouraged by the above findings, we carried out a 2-week pilot study to determine the effect of 1 on plasma total cholesterol levels. As an animal model, we employed the LDLr-null mouse, which has a human-like lipoprotein profile and is a leading animal model for studying hypercholesterolemia and atherogenesis. Considering that the abiotic nature of cyclic D,L-α-peptides renders them highly resistant to proteolysis, we chose to conduct this pilot in vivo efficacy study via the more convenient oral route of administration. Thus, the cyclic D,L-α-peptide was administered orally in the drinking water for two weeks (each mouse drank ˜0.5 mg peptide per day, or ˜25 mg/kg/day) to mice maintained on a high-fat diet.
(§1) In vivo efficacy study: LDL receptor-null (LDLr^−/−) mice on a C57BL/6J background were initially purchased from Jackson Laboratories (Bar Harbor, Me.) and were bred in house. The mice were weaned at 4 weeks of age and were fed ad libitum a standard chow diet (Harlan Teklad 7019) until they were 10-weeks old, when they were switched to a high-fat Western diet (WD) containing 15.8% (wt/wt) fat, 1.25% (wt/wt) cholesterol, and no cholate (Harlan Teklad 94059). At the time that the WD was started, the test cyclic peptide was added to the drinking water at a high dose of 180 μM (200 μg/mL) or a low dose of 18 μM (20 μg/mL) and the mice (female, n=8 per dosing group) were continued on WD for 10 weeks. The lyophilized peptide was easily dissolved in PBS (pH 7.4) containing 1% sucrose, resulting in a clear solution. The drinking water solution was replaced with fresh solution every day. A control group of eight mice (female, n=8) were fed WD with vehicle (PBS with 1% sucrose) drinking water. The mice consumed approximately 2.5 mL of water per day per mouse, and there was no significant difference in water or food consumption between groups.
Effect of cyclic peptides on plasma total cholesterol: The mice were bled after two weeks of treatment and at the time of harvest (10 weeks). The blood (200 μL) was collected after an overnight fast (14-16 h) by retro-orbital puncture into a heparinized capillary tube at two weeks, or by cardiac puncture into EDTA anti-coagulant coated tubes at the time of harvest (10 weeks). Plasma was separated from whole blood immediately by centrifugation of the blood samples at 5000 rpm for 10 min at 4° C., and was then stored at −80° C. Plasma total cholesterol (TC) was measured using an enzymatic colorimetric method kit (Amplex® red cholesterol assay kit, No. A12216, Life Technologies) according to the manufacturer's instructions.
In addition, several peptides were administered orally to mice at a 35 mg/kg dose (unless otherwise noted) in the drinking water for two weeks. The female LDLr-null mice maintained on a high-fat diet were provided with peptide-treated 1% sucrose/PBS or 1% sucrose/PBS alone as the drinking water ad libitum. Cholesterol levels were then determined. The data are shown in FIG. 7 as a scatter plot along with mean±SD. p values were determined by the one-way ANOVA test with a post hoc Tukey-Kramer test.

[2] = system: LDLr-null mice; assay: evaluation of atherosclerosis: whole aorta lesion area and aortic sinus lesion volume; assay type: in vivo, mouse; details: 10 weeks
Excerpt: as §1
Evaluation of atherosclerosis: Atherosclerotic lesion severity was assessed in the aortae as previously described in Mullick et al., J. Clin. Invest. 115, 3149-3156, 2005. Briefly, at euthanasia, animals were perfused with PBS, followed by 4% formaldehyde (10% UltraPure EM Grade from Polysciences diluted in PBS, pH 7.2). For en face analysis, the entire mouse aorta was dissected from the proximal ascending aorta to the bifurcation of the iliac artery by using a dissecting microscope. Adventitial fat was removed, and the aorta was opened longitudinally, pinned flat onto black dissecting wax, stained with Sudan IV, and photographed at a fixed magnification. The photographs were digitized, and total aortic areas and lesion areas were calculated by using Adobe Photoshop version CS4, Chromatica V, and NIH Scion Image software (http://rsb.info.nih.gov/nih-image/Default.html). The results were reported as a percentage of the total aortic area that contained lesions.
As a second assessment of atherosclerosis, lesions of the aortic root (heart sinus) were analyzed. Utilizing stereological principles, lesion volume was estimated across a fixed distance of the aortic sinus. […] Lesion areas found only within the valve cusp were measured. […] Lesion volume was calculated from an integration of the measured cross-sectional areas. […]
Other than their in vivo cholesterol reducing activities, several peptides were also examined for ability to inhibit development of atherosclerotic legions in vivo. […] All charts in the figure are shown as a scatter plot along with mean±SD. p values were determined by the one-way ANOVA test with a post hoc Tukey-Kramer test.

[3] = plasma liver enzyme activities (ALT, AST); assay type: in vivo, mouse; details: oral ~25 mg/kg/day, 10 weeks, LDLr-null mice
Protocol: Plasma liver enzyme activities: At the time of harvest (10 week), blood (˜0.5 mL) was collected after an overnight fast (14-16 h) by cardiac puncture into EDTA anti-coagulant coated tubes, and centrifuged at 4° C. for 10 min×5000 rpm. Plasma samples were stored at −80° C. until analysis. Plasma alanine aminotransferase (ALT) and aspartate aminotransferase (AST) concentrations were measured using Infinity ALT (GPT) and AST (GOT) liquid stable reagents, respectively, which is a colorimetric kinetic assay (Thermo Scientific). Assays were performed in accordance to the manufacturer's recommendations, adjusting the reagent volumes (20 μL plasma+200 μL reagent, 0.69-cm light pathlength of the solution in the well) for analysis of samples in 96-well flat bottom microplate format.

[4] = oral ~25 mg/kg/day, LDLr-null mice, high-fat diet, vs control

Q: For `CC(C)C[C@@H]1NC(=O)[C@@H](Cc2c[nH]c3ccccc23)NC(=O)[C@H](CCCNC(=N)N)NC(=O)[C@@H](CCC(=O)O)NC(=O)[C@H](CCC(N)=O)NC(=O)[C@@H](CCC(=O)O)NC(=O)[C@H](CCCNC(=N)N)NC(=O)[C@@H](Cc2c[nH]c3ccccc23)NC1=O` [SEQ ID NO:1, c[wLwReQeR]] (cyclo([dW]L[dW]R[dE]Q[dE]R)), which “reduction in plasma cholesterol levels compared to control animals” value ([1]; 10-fold lower dose ~2.5 mg/kg/day in drinking water, after two weeks) is on record?
A: 17%

Q: And the “reduction in total plasma cholesterol compared to control animals” value ([1]; oral in drinking water ~25 mg/kg/day, 2 weeks, female LDLr-null mice, high-fat diet)?
A: 55%

Q: And the “reduction of total plasma cholesterol levels (overview statement)” value ([1]; oral in drinking water, LDLr-null mice, high-fat diet for 10 weeks, vs. controls)?
A: up to 55%

Q: And the “total plasma cholesterol level lower than in control animals” value ([1]; oral ~25 mg/kg/day, 10 weeks, LDLr-null mice, high-fat diet)?
A: 30%

Q: What about the “plasma cholesterol vs control (in words)” value ([1]; ~2.5 mg/kg/day in drinking water, completion of 10-week study) of the same molecule?
A: no significant differences

Q: And the “atherosclerotic lesions vs control (in words)” value ([2]; 10-fold lower dose in drinking water)?
A: no significant differences

Q: What about the “reduction in aortic sinus lesion volume” value [2, 4] of the same molecule?
A: 50%

Q: What about the “reduction in whole aorta lesion area” value [2, 4] of the same molecule?
A: 26%

Q: What about the “liver enzyme ALT, difference between groups” value [3] of the same molecule?
A: No differences

Q: What about the “liver enzyme AST, difference between groups” value [3] of the same molecule?
A: No differences
